Assay results reported in US20250129028A1, “COMPOUNDS AND METHODS FOR YAP/TEAD MODULATION AND INDICATIONS THEREFOR” (Opna Bio SA, priority 2022, published 2025).

System: TEAD-dependent transcription
Assay: TEAD-dependent transcription cell-based reporter assay (MSTO-211H+12XGTIIC luciferase)
Design: species or system human
Conditions: Homo sapiens; MSTO-211H+12XGTIIC cell line, luciferase signal normalized to cell viability, 24 hours compound incubation; read-out: MSTO-211H GMean IC50 (uM) Cell Assay Reporter Cell Variant: TEAD
Summary of the method: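 MSTO-211H mesothelioma cells stably carrying a 12xGTIIC TEAD-response-element luciferase reporter, treated with serial compound dilutions for 24 h at 37 °C. Luminescence normalized to CellTiter-Fluor viability signal; % inhibition versus DMSO and 20 μM K-975 controls, IC50 by nonlinear regression.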

`CCCCS(=O)(=O)N1CCc2ccc(Oc3ccc(C(F)(F)F)cc3)cc2C1` [P-0034, 2-(butylsulfonyl)-7-(4-(trifluoromethyl)phen-oxy)-1,2,3,4-tetrahydro-isoquinoline] and `CCNS(=O)(=O)N1CCc2ccc(Oc3ccc(C(F)(F)F)cc3)cc2C1` [P-0017, N-Ethyl-7-(4-(trifluoromethyl)phenoxy)-3,4-dihydroisoquinoline-2(1H)-sulfonamide] fall in the same range of IC50: 0.001 to 10 µM for the first, 0.001 to 10 µM for the second.

`CN(C)CCCC(=O)N1CCc2c(cccc2Oc2ccc(C(F)(F)F)cc2)C1` [P-0263, 4-(dimethylamino)-1-(5-(4-(trifluoromethyl)phen-oxy)-3,4-dihydroisoquin-olin-2(1H)-yl)butan-1-one] and `O=C(Cc1ccn[nH]1)N1CCc2c(cccc2Oc2ccc(C(F)(F)F)cc2)C1` [P-0241, 2-(1H-pyrazol-5-yl)-1-(5-(4-(trifluoromethyl)-phenoxy)-3,4-dihydroiso-quinolin-2(1H)-yl)ethan-1-one] fall in the same range of IC50: 0.001 to 10 µM for the first, 0.001 to 10 µM for the second.

`O=C1CCC(CC(=O)N2CCc3ccc(Oc4ccc(C(F)(F)F)cc4)cc3C2)CN1` (stereo not drawn) [P-0132, 5-(2-oxo-2-(7-(4-(trifluoromethyl)phen-oxy)-3,4-dihydroisoquin-olin-2(1H)-yl)ethyl)piper-idin-2-one] and `O=C(CC1COC1)N1CCc2ccc(Oc3ccc(C(F)(F)F)cc3)cc2C1` [P-0069, 2-(oxetan-3-yl)-1-(7-(4-(trifluoromethyl)phen-oxy)-3,4-dihydroisoquin-olin-2(1H)-yl)ethan-1-one] fall in the same range of IC50: 0.001 to 10 µM for the first, 0.001 to 10 µM for the second.

`O=C(C(O)CO)N1CCc2ccc(Oc3ccc(C(F)(F)F)cc3)cc2C1` (stereo not drawn) [P-0007, 2,3-dihydroxy-1-(7-(4-(trifluoromethyl)phen-oxy)-3,4-dihydroisoquin-olin-2(1H)-yl)propan-1-one] and `CCNC(=O)N1CCc2ccc(Oc3ccc(C(F)(F)F)cc3)cc2C1` [P-0003, N-ethyl-7-(4-(trifluoro-methyl)phenoxy)-3,4-dihydroisoquinoline-2(1H)-carboxamide] fall in the same range of IC50: 0.001 to 10 µM for the first, 0.001 to 10 µM for the second.

`CNC(=O)c1cncc(N2CCc3ccc(Oc4ccc(C(F)(F)F)cc4)cc3C2)n1` [P-0231, N-methyl-6-(7-(4-(trifluoromethyl)phen-oxy)-3,4-dihydroisoquin-olin-2(1H)-yl)pyrazine-2-carboxamide] and `NS(=O)(=O)c1ccnc(N2CCc3ccc(Oc4ccc(C(F)(F)F)cc4)cc3C2)c1` [P-0230, 2-(7-(4-(trifluorometh-yl)phenoxy)-3,4-dihydro-isoquinolin-2(1H)-yl)-pyridine-4-sulfonamide] fall in the same range of IC50: 0.001 to 10 µM for the first, 0.001 to 10 µM for the second.

`CS(=O)(=O)CCC(=O)N1CCc2ccc(Oc3ccc(C(F)(F)F)c(F)c3)cc2C1` [P-0085, 1-(7-(3-fluoro-4-(trifluoromethyl)phen-oxy)-3,4-dihydroisoquin-olin-2(1H)-yl)-3-(methyl-sulfonyl)propan-1-one] and `O=C(CNS(=O)(=O)C1CC1)N1CCc2ccc(Oc3ccc(C(F)(F)F)c(F)c3)cc2C1` [P-0117, N-(2-(7-(3-fluoro-4-(trifluoromethyl)phen-oxy)-3,4-dihydroisoquin-olin-2(1H)-yl)-2-oxoeth-yl)cyclopropanesulfon-amide] fall in the same range of IC50: 0.001 to 10 µM for the first, 0.001 to 10 µM for the second.

`NC(=O)NCC(=O)N1CCc2c(cccc2-c2ccc(C(F)(F)F)cc2)C1` [P-0272, 1-(2-oxo-2-(5-(4-(trifluoromethyl)phen-yl)-3,4-dihydroisoquin-olin-2(1H)-yl)ethyl)urea] and `Nc1nc(C(=O)N2CCc3c(cccc3-c3ccc(C(F)(F)F)cc3)C2)cs1` [P-0274] fall in the same range of IC50: 0.001 to 10 µM for the first, 0.001 to 10 µM for the second.

`COCC(C)NC(=O)N1CCc2c(cccc2Oc2ccc(C(F)(F)F)cc2)C1` (stereo not drawn) [P-0266, N-(1-methoxypropan-2-yl)-5-(4-(trifluorometh-yl)phenoxy)-3,4-dihydro-isoquinoline-2(1H)-carboxamide] and `O=C(Cc1nnc[nH]1)N1CCc2c(cccc2Oc2ccc(C(F)(F)F)cc2)C1` [P-0251, 2-(4H-1,2,4-triazol-3-yl)-1-(5-(4-(trifluoromethyl)-phenoxy)-3,4-dihydroiso-quinolin-2(1H)-yl)ethan-1-one] fall in the same range of IC50: 0.001 to 10 µM for the first, 0.001 to 10 µM for the second.

`O=C(C1CNC1)N1CCc2ccc(Oc3ccc(C(F)(F)F)c(F)c3)cc2C1` [P-0144, azetidin-3-yl(7-(3-fluoro-4-(trifluoromethyl)phen-oxy)-3,4-dihydroisoquin-olin-2(1H)-yl)methanone] and `O=C1NCCC1CC(=O)N1CCc2ccc(Oc3ccc(C(F)(F)F)c(F)c3)cc2C1` (stereo not drawn) [P-0142, 3-(2-(7-(3-fluoro-4-(trifluoromethyl)phen-oxy)-3,4-dihydroisoquin-olin-2(1H)-yl)-2-oxoeth-yl)pyrrolidin-2-one] fall in the same range of IC50: 0.001 to 10 µM for the first, 0.001 to 10 µM for the second.

`O=C1N[C@@H](CC(=O)N2CCc3ccc(Oc4ccc(C(F)(F)F)c(F)c4)cc3C2)CO1` [P-0140, (S)-4-(2-(7-(3-fluoro-4-(trifluoromethyl)phen-oxy)-3,4-dihydroisoquin-olin-2(1H)-yl)-2-oxoeth-yl)oxazolidin-2-one] and `CN1C(=O)SC(CC(=O)N2CCc3ccc(Oc4ccc(C(F)(F)F)c(F)c4)cc3C2)C1=O` (stereo not drawn) [P-0138, 5-(2-(7-(3-fluoro-4-(trifluoromethyl)phen-oxy)-3,4-dihydroisoquin-olin-2(1H)-yl)-2-oxoeth-yl)-3-methylthiazolidine-2,4-dione] fall in the same range of IC50: 0.001 to 10 µM for the first, 0.001 to 10 µM for the second.

`O=C(Cc1cc[nH]n1)N1CCc2ccc(Oc3ccc(C(F)(F)F)cc3)cc2C1` [P-0133, 2-(1H-pyrazol-3-yl)-1-(7-(4-(trifluoromethyl)-phenoxy)-3,4-dihydroiso-quinolin-2(1H)-yl)ethan-1-one] and `O=C(Cc1c[nH]cn1)N1CCc2ccc(Oc3ccc(C(F)(F)F)cc3)cc2C1` [P-0164, 2-(1H-imidazol-4-yl)-1-(7-(4-(trifluoromethyl)-phenoxy)-3,4-dihydroiso-quinolin-2(1H)-yl)ethan-1-one] fall in the same range of IC50: 0.001 to 10 µM for the first, 0.001 to 10 µM for the second.

`C=CC(=O)Nc1nc(CC(=O)N2CCc3ccc(Oc4ccc(C(F)(F)F)c(F)c4)cc3C2)cs1` [P-0154, N-(4-(2-(7-(3-fluoro-4-(trifluoromethyl)phen-oxy)-3,4-dihydroisoquin-olin-2(1H)-yl)-2-oxoeth-yl)thiazol-2-yl)acrylamide] and `O=C(CCn1cncn1)N1CCc2ccc(Oc3ccc(C(F)(F)F)c(F)c3)cc2C1` [P-0153, 1-(7-(3-fluoro-4-(trifluoromethyl)phen-oxy)-3,4-dihydroisoquin-olin-2(1H)-yl)-3-(1H-1,2,4-triazol-1-yl)propan-1-one] fall in the same range of IC50: 0.001 to 10 µM for the first, 0.001 to 10 µM for the second.

`CS(=O)(=O)C12CC(C(=O)N3CCc4ccc(Oc5ccc(C(F)(F)F)cc5)cc4C3)(C1)C2` [P-0089, (3-(methylsulfonyl)-bicyclo[1.1.1]pentan-1-yl)(7-(4-(trifluoro-methyl)phenoxy)-3,4-dihydroisoquinolin-2(1H)-yl)methanone] and `CN(C(=O)N1CCc2ccc(Oc3ccc(C(F)(F)F)cc3)cc2C1)C1CCS(=O)(=O)C1` (stereo not drawn) [P-0065, N-(1,1-dioxidotetra-hydrothiophen-3-yl)-N-methyl-7-(4-(trifluoro-methyl)phenoxy)-3,4-dihydroisoquinoline-2(1H)-carboxamide] fall in the same range of IC50: 0.001 to 10 µM for the first, 0.001 to 10 µM for the second.

`O=C1NC(=O)C(CC(=O)N2CCc3ccc(Oc4ccc(C(F)(F)F)cc4)cc3C2)N1` (stereo not drawn) [P-0083, 5-(2-oxo-2-(7-(4-(trifluoromethyl)phen-oxy)-3,4-dihydroisoquin-olin-2(1H)-yl)ethyl)imid-azolidine-2,4-dione] and `O=C(CN1C(=O)CCC1=O)N1CCc2ccc(Oc3ccc(C(F)(F)F)cc3)cc2C1` [P-0044, 1-(2-oxo-2-(7-(4-(trifluoromethyl)phen-oxy)-3,4-dihydroiso-quinolin-2(1H)-yl)-ethyl)pyrrolidine-2,5-dione] fall in the same range of IC50: 0.001 to 10 µM for the first, 0.001 to 10 µM for the second.

`CN(C)C(N1CCc2ccc(Oc3ccc(C(F)(F)F)cc3)cc2C1)=[N+](C)C` [P-0156, N-((dimethylamino)(7-(4-(trifluoromethyl)phen-oxy)-3,4-dihydroisoquin-olin-2(1H)-yl)methylene)-N-methylmethanaminium] and `N#CC1CC(C(=O)N2CCc3ccc(Oc4ccc(C(F)(F)F)cc4)cc3C2)C1` (stereo not drawn) [P-0042, 3-(7-(4-(trifluorometh-yl)phenoxy)-1,2,3,4-tetrahydroisoquinoline-2-carbonyl)cyclobutane-1-carbonitrile] fall in the same range of IC50: 0.001 to 10 µM for the first, 0.001 to 10 µM for the second.

`C=CC(=O)N1CCC(C2c3cc(Oc4ccc(C(F)(F)F)cc4)ccc3CCN2C(=O)CCS(C)(=O)=O)C1` (single isomer, unassigned) [P-0217, 1-(3-(2-(3-(methylsulfonyl)propanoyl)-7-(4-(trifluoromethyl)phenoxy)-1,2,3,4-tetrahydroisoquinolin-1-yl)pyrrolidin-1-yl)prop-2-en-1-one] and `COC(=O)[C@@H]1Cc2ccc(Oc3ccc(C(F)(F)F)cc3)cc2CN1C(=O)CCS(C)(=O)=O` [P-0224, methyl (S)-2-(3-(methyl-sulfonyl)propanoyl)-7-(4-(trifluoromethyl)-phenoxy)-1,2,3,4-tetra-hydroisoquinoline-3-carboxylate] fall in the same range of IC50: 0.001 to 10 µM for the first, 0.001 to 10 µM for the second.

Compared with `CS(=O)(=O)CCC(=O)N1CCc2ccc(-c3ccc(OC(F)(F)F)cc3)cc2C1` [P-0277, 3-(methylsulfonyl)-1-(7-(4-(trifluoromethoxy)phenyl)-3,4-dihydroisoquinolin-2(1H)-yl)propan-1-one], `CC(C)=Cc1c(Oc2ccc(C(F)(F)F)cc2)ccc2c1CN(C(=O)CCS(C)(=O)=O)CC2` [P-0221, 1-(8-(2-methylprop-1-en-1-yl)-7-(4-(trifluorometh-yl)phenoxy)-3,4-dihydro-isoquinolin-2(1H)-yl)-3-(methylsulfonyl)pro-pan-1-one] is lower in IC50: 10 to 100 µM for the first, 0.001 to 10 µM for the second.

`CC(=O)N1CCC(c2c(Oc3ccc(C(F)(F)F)cc3)ccc3c2CN(C(=O)CCS(C)(=O)=O)CC3)CC1` [P-0213, 1-(8-(1-acetylpiperidin-4-yl)-7-(4-(trifluorometh-yl)phenoxy)-3,4-dihydro-isoquinolin-2(1H)-yl)-3-(methylsulfonyl)pro-pan-1-one] and `O=S(=O)(N1CCCC1)N1CCc2ccc(Oc3ccc(C(F)(F)F)cc3)cc2C1` [P-0030, 2-(pyrrolidin-1-ylsulfon-yl)-7-(4-(trifluorometh-yl)phenoxy)-1,2,3,4-tetrahydroisoquinoline] fall in the same range of IC50: 0.001 to 10 µM for the first, 0.001 to 10 µM for the second.
